Where two headings read alike, the source gives them in different places.
How the values were obtained:
human CB2 (AtT20-CB2) [1] = molecular target: T1, human CB2 (AtT20-CB2) (Homo sapiens, UniProt P34972); test: FLIPR membrane potential assay, AtT20 cells; format: cell-based
T1 construct: gene CNR2; full-length, stably transfected in mouse AtT20 cells
Excerpt: FLIPR membrane potential assay, AtT20 cells on human CB2 (AtT20-CB2)

HA-hCB2 [2] = molecular target: T2, HA-hCB2 (Homo sapiens, UniProt P34972); test: [3H]CP55, […] competition, membranes; format: binding
T2 construct: gene CNR2
T2 sequence (P34972 whole entry): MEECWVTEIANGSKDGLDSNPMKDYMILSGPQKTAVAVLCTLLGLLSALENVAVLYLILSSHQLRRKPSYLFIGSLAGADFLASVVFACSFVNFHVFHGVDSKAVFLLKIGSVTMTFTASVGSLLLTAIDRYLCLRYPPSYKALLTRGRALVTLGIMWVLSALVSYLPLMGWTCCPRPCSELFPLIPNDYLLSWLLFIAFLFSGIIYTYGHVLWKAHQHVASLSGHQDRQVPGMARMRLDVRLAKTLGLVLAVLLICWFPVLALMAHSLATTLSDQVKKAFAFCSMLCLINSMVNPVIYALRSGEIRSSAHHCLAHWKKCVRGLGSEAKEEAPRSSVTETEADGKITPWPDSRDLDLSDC

HA-hCB1 = molecular target: T3, HA-hCB1 (Homo sapiens, UniProt P21554); test: [3H]SR141716A competition, membranes; format: binding
T3 construct: gene CNR1
T3 sequence (P21554 whole entry): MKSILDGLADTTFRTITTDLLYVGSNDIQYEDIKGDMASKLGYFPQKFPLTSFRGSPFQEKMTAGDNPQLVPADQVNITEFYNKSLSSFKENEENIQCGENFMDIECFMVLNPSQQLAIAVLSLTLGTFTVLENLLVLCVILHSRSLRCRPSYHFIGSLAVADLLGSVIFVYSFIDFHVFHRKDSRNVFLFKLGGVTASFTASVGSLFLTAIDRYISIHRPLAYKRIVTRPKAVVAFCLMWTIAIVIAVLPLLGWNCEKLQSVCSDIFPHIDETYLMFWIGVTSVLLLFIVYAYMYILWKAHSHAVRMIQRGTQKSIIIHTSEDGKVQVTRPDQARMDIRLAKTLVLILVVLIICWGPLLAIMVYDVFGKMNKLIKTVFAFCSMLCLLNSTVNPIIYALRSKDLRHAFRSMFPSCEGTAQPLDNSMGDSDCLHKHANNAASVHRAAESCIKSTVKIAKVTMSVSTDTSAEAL

human CB2 (AtT20-CB2) [3] = molecular target: T1, human CB2 (AtT20-CB2); test: cell-based; conditions: for Emax: read-out: hCB2 Max (% CP 55,940); for EC50: read-out: hCB2 pEC50 (converted)
Method: (§1) Mouse AtT20 neuroblastoma cells stably transfected with human CB1 or human CB2 have been previously described.[43] and were cultured in Dulbecco’s modified Eagle’s medium (DMEM) containing 10% fetal bovine serum (FBS), 100 U penicillin/streptomycin, and 80 μg/mL hygromycin (InvivoGen, San Diego, CA, USA). Cells were passaged at 80% confluency as required. Cells for assays were grown in 75 cm2 flasks and used at 90% confluence. The day before the assay cells were detached from the flask with trypsin/EDTA (Sigma) and resuspended in 10 mL of Leibovitz’s L-15 media supplemented with 1% FBS, 100 U penicillin/streptomycin and 15 mM glucose. The cells were plated in volume of 90 μL in black walled, clear bottomed 96-well microplates (Corning) which had been precoated with poly-L-lysine (Sigma, Australia). Cells were incubated overnight at 37 °C in ambient CO2. Membrane potential was measured using a FLIPR Membrane Potential Assay kit (blue) from Molecular Devices, as described previously.[46] The dye was reconstituted with assay buffer of composition (mM): NaCl 145, HEPES 22, Na2HPO4 0.338, NaHCO3 4.17, KH2PO4 0.441, MgSO4 0.407, MgCl2 0.493, CaCl2 1.26, glucose 5.56 (pH 7.4, osmolarity 315 ± 5). Prior to the assay, cells were loaded with 90 μL/well of the dye solution without removal of the L-15, giving an initial assay volume of 180 μL/well. Plates were then incubated at 37 °C at ambient CO2 for 45 min. Fluorescence was measured using a FlexStation 3 (Molecular Devices) microplate reader with cells excited at a wavelength of 530 nm and emission measured at 565 nm. Baseline readings were taken every 2 s for at least 2 min, at which time either drug or vehicle was added in a volume of 20 μL. The background fluorescence of cells without dye or dye without cells was negligible. Changes in fluorescence were expressed as a percentage of baseline fluorescence after subtraction of the changes produced by vehicle addition. The final concentration of DMSO was 0.1%. Data were analyzed with PRISM (GraphPad Software Inc., San Diego, CA), using four-parameter nonlinear regression to fit concentration-response curves. In all plates, a maximally effective concentration of CP 55,940 was added to allow for normalization between assays.

human CB1 (AtT20-CB1) = molecular target: T4, human CB1 (AtT20-CB1) (Homo sapiens, UniProt P21554); test: cell-based; conditions: read-out: % activation
T4 construct: gene CNR1; full-length, stably transfected in mouse AtT20 cells
T4 sequence (P21554 whole entry): as above
Method: as §1

HA-hCB2 [4] = molecular target: T2, HA-hCB2; test: biochemical; design: species or system HEK 293; conditions: read-out: hCB2 pKi (converted)

T1 sequence (P34972 whole entry): as the sequence (P34972 whole entry) above

SMILES	EC50 (human CB2 (AtT20-CB2) [1]) [nM]	Ki (HA-hCB2 [2]) [nM]	Ki (HA-hCB1) [nM]	Emax (human CB2 (AtT20-CB2) [3]) [%]	EC50 (human CB2 (AtT20-CB2) [1]; read-out: EC50) [nM]	Ki (HA-hCB2 [2]; read-out: Ki) [nM]	Ki (HA-hCB1; read-out: pKi (converted)) [nM]	activity at 10 µM (human CB1 (AtT20-CB1)) [%]	activity at 10 µM (human CB2 (AtT20-CB2) [3]; read-out: % activation) [%]	EC50 (human CB2 (AtT20-CB2) [3]) [nM]	Ki (HA-hCB2 [4]) [nM]
O=C(c1cn(CCCCCF)c2ccccc12)N1CCCC1 [compound 5, (1-(5-Fluoropentyl)-1H-indol-3-yl)(pyrrolidin-1-yl)methanone]	338	1740	> 10000	50 ± 3	–	–	–	–	–	–	–
O=C(c1cn(CCCCCF)c2ccccc12)N1CCCCC1 [compound 7, (1-(5-Fluoropentyl)-1H-indol-3-yl)(piperidin-1-yl)methanone]	–	–	–	64 ± 3	36.3	363	> 10000	–	–	–	–
O=C(c1cn(CCCCCF)c2ccccc12)N1CCCCCC1 [compound 8, Azepan-1-yl(1-(5-fluoropentyl)-1H-indol-3-yl)methanone]	–	–	–	72 ± 3	29	102	> 10000	–	–	–	–
CCN(CC)C(=O)c1cn(CCCCCF)c2ccccc12 [compound 9, 1-(5-Fluoropentyl)-N,N-diethyl-1H-indole-3-carboxamide]	–	–	–	53 ± 4	137	1020	> 10000	0	–	–	–
CN(C)C(=O)c1cn(CCCCCF)c2ccccc12 [compound 10, 1-(5-Fluoropentyl)-N,N-dimethyl-1H-indole-3-carboxamide]	–	–	–	–	–	> 10000	> 10000	9 ± 4	11 ± 2	–	–
CCCCn1cc(C(=O)N2CCCC2)c2ccccc21 [compound 11, (1-Butyl-1H-indol-3-yl)(pyrrolidin-1-yl)methanone]	–	–	–	63 ± 9	–	> 10000	> 10000	16 ± 9	–	468	–
CCCCCn1cc(C(=O)N2CCCC2)c2ccccc21 [compound 12, (1-Pentyl-1H-indol-3-yl)(pyrrolidin-1-yl)methanone]	–	–	–	54 ± 7	–	–	> 10000	1 ± 3	–	234	3240
O=C(c1cn(Cc2ccc(F)cc2)c2ccccc12)N1CCCC1 [compound 13, (1-(4-Fluorobenzyl)-1H-indol-3-yl)(pyrrolidin-1-yl)methanone]	–	–	–	38 ± 13	–	–	> 10000	12 ± 2	–	363	3550
O=C(c1cn(CC2CCCCC2)c2ccccc12)N1CCCC1 [compound 14, (1-(Cyclohexylmethyl)-1H-indol-3-yl)(pyrrolidin-1-yl)methanone]	–	–	–	38 ± 3	–	–	> 10000	–	–	135	1070

— publication doi:10.1101/430959v1, “The chemistry and pharmacology of putative synthetic cannabinoid receptor agonist (SCRA) new psychoactive substances (NPS) 5F-PY-PICA, 5F-PY-PINACA, and their analogues” (biorxiv, 2018)
